According to patent US20240226211A9, “SEAWEED EXTRACTS, ISOLATED COMPOUNDS, AND METHODS OF TREATMENT” (University of Florida Research Foundation, Incorporated, priority 2017, published 2024):

Experiments:
iNOS = iNOS transcript levels in RAW264.7 macrophage cells; assay type: cell-based, mouse; conditions: 10 μM Compound 1, IFN-γ
Procedure: The RNeasy Mini Kit (Qiagen) was used to collect total RNA from cells, while for mouse tissue, TRIzol reagent (Invitrogen) was used. In each case, total RNAs (2 μg) were reverse-transcribed into cDNAs, which were used as templates for TaqMan gene expression assay (Applied Biosystems) and detected using the 7300 Real-Time PCR System (Applied Biosystems). Each qPCR sample was tested in triplicate as a 25 μL total reaction volume (12.5 μL of Taqman 2× universal master mix, 1.25 μL of a 20× TaqMan gene expression assay probe, 1 μL of the above cDNA, and 10.25 μL of RNase-free sterile water). The qPCR method was designed as following: 50° C. for 2 min, 95° C. for 10 min, and 40 cycles of 95° C. for 15 s and 60° C. for 1 min. Endogenous controls used included GAPDH for IMR-32 cells and β-actin to normalize for RAW264.7 cells and mouse tissues.
RAW264.7 cells were seeded in 6-well plates (8×10^5 cells/well) and incubated at 37° C. overnight.

zebrafish = experiment: Phenotypic toxicity in zebrafish; assay type: in vivo, Danio rerio; conditions: embryos and adults
[1] = system: neutrophil migration to cut site, Tg(mpx::GFP) zebrafish; experiment: Zebrafish in vivo neutrophil migration assay; set-up: species or system Danio rerio; conditions: relative to DMSO vehicle control
Procedure: Tg(mpx::GFP)^ill4 transgenic zebrafish larvae (6 dpf) were pre-treated in duplicate with a solvent control ((DMSO, 1%, v/v) or serial dilutions of the compound or extract in 12-well plate format with five larvae per well containing 1 mL E2 medium containing 1 mM Tris pH 7.4. After 3 hours, larvae were anesthetised with Tricaine and tailfins were amputated using sharp blades to induce the migration of neutrophils. The larvae were then placed into fresh wells to be post-treated for an additional 3 hours. A fluorescence stereomicroscope was used to count the number of neutrophils that migrated to the site of injury. The assay was performed in triplicate to determine statistical significance.
For in vivo evaluation, a previously reported neutrophil migration assay in the model organism, Danio rerio, was used [Wang X, et al. (2014) Inhibitors of neutrophil recruitment identified using transgenic zebrafish to screen a natural product library. Dis Model Mech 7(1):163-169]. […] The fish were then quickly transferred into fresh media containing the treatments for an additional 3 h before the GFP-tagged neutrophils were counted under the fluorescent microscope. […]

Nrf2 = experiment: RNA interference of Nrf2 in IMR-32 cells, NQO1 induction; assay type: cell-based, human; conditions: IMR-32, 48 h RNAi then 24 h treatment
Procedure: The media was then carefully aspirated and replaced with a transfection mixture composed of siRNAs (50 nM) and siLentFect™ lipid transfection reagent (Bio-Rad Laboratories) in fresh medium. […] The siRNAs, siGENOME Non-Targeting siRNA Pools and siGENOME SMARTpool (human NFE2L2), were purchased from Dharmacon.
In order to determine whether NQO1 induction is Nrf2 dependent, IMR-32 cells were transfected with siRNA targeting Nrf2 or non-targeting siRNA. After 48 hours of RNAi of Nrf2, cells were treated with the samples or the vehicle control for 24 hours.

Nqo1 = Nqo1 activity assay in MEFs; assay type: cell-based, murine
Procedure: Wild-type (8×10^3 cells/well), Nrf2−/− (8×10^3 cells/well), and Keap1−/− (4×10^3 cells/well) MEFs were seeded into a 96-well format and incubated overnight at 37° C. Cells were treated with a solvent control (DMSO, 1%, v/v) or serial dilutions of isolated compounds or extracts for 40 hours.

[2] = Toxicity observation in mice after oral gavage; assay type: in vivo; conditions: oral gavage 3 consecutive days
Procedure: The experiments were approved by the Institutional Animal Care & Use Committee at the University of Florida. Groups of 5-10 wild type male mice (C57BL/6J) were used for each treatment type. The mice were maintained under approved standard conditions. Cymopol (1) and the non-polar extract (NP extract) were dissolved in Chremophor EL (Sigma) containing 10% DMSO and administered via oral gavage for 3 consecutive days, with 24 h between each treatment. […] 12 h following the final treatment, the mice were euthanized in 100% CO2. The tissues were harvested immediately, frozen on dry ice, and kept at −80° C. until analyzed.

[3] = system: ARE-driven and NFκB driven genes; experiment: Gene transcription in wildtype zebrafish embryos; assay type: in vivo

CC(C)=CCC/C(C)=C/Cc1cc(O)c(Br)cc1O [Compound 1, (E)-2-bromo-5-(3,7-dimethylocta-2,6-dien-1-yl)benzene-1,4-diol]
lowering of induced iNOS transcript levels (iNOS): > 96%
toxicity in zebrafish (zebrafish): demonstrate toxicities at fairly low concentrations
number of neutrophils at the cut site [1]: decrease of neutrophils
induction of NQO1 transcript levels in siNrf2 transfected cells (Nrf2): inhibited in siNrf2 transfected cells
Nqo1 enzymatic activity (Nqo1; each MEF cell type relative to DMSO control): induce Nqo1 enzymatic activity in a dose-dependent manner
relative Nqo1 activity, wild-type versus knockout MEFs (Nqo1; high concentrations): more so in wild-type than in Nrf2 and Keap1 knockout MEFs
apparent toxicity [2]: No apparent toxicity was observed
ARE-driven gene transcription [3]: increase in ARE-driven gene transcription
select NFκB driven genes [3]: decrease in select NFκB driven genes
